From PubChem BioAssay AID2060898 (Molecular Pharmacology Branch, DTP, NCI, 2025)

System: 616215-338-R-J1-PDC complex spheroid viability
Assay: Anticancer human tumor 616215-338-R-J1-PDC patient-derived colon adenocarcinoma cell line growth inhibition [RAS]
Settings: for IC50: curve of first compound; for viability, T/C: stronger effect = lower value; active = viability on the fitted dose curve at most 10% of control; inactive = the rest
How it was run: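 Agents were tested in combination matrices in half-log decrements from a top concentration at or near clinical Cmax (10 microM if undetermined). Targets were multi-cell spheroids of tumour lines plus HUVEC and MSC stromal cells.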

[1] = second compound 0.00316 µM, first compound 0.0316 µM
[2] = second compound 0.00316 µM, first compound 0.1 µM
[3] = second compound 0.00316 µM, first compound 0.316 µM
[4] = second compound 0.00316 µM, first compound 1 µM
[5] = second compound 0.00316 µM, first compound 3.16 µM
[6] = second compound 0.00316 µM, first compound 10 µM
[7] = second compound 0.01 µM, first compound 0.0316 µM
[8] = second compound 0.01 µM, first compound 0.1 µM
[9] = second compound 0.01 µM, first compound 0.316 µM
[10] = second compound 0.01 µM, first compound 1 µM
[11] = second compound 0.01 µM, first compound 3.16 µM
[12] = second compound 0.01 µM, first compound 10 µM
[13] = second compound 0.0316 µM, first compound 0.0316 µM
[14] = second compound 0.0316 µM, first compound 0.1 µM
[15] = second compound 0.0316 µM, first compound 0.316 µM
[16] = second compound 0.0316 µM, first compound 1 µM
[17] = second compound 0.0316 µM, first compound 3.16 µM
[18] = second compound 0.0316 µM, first compound 10 µM
[19] = second compound 0.1 µM, first compound 0.0316 µM
[20] = second compound 0.1 µM, first compound 0.1 µM
[21] = second compound 0.1 µM, first compound 0.316 µM
[22] = second compound 0.1 µM, first compound 1 µM
[23] = second compound 0.1 µM, first compound 3.16 µM
[24] = second compound 0.1 µM, first compound 10 µM
[25] = second compound 0.316 µM, first compound 0.0316 µM
[26] = second compound 0.316 µM, first compound 0.1 µM
[27] = second compound 0.316 µM, first compound 0.316 µM
[28] = second compound 0.316 µM, first compound 1 µM
[29] = second compound 0.316 µM, first compound 3.16 µM
[30] = second compound 0.316 µM, first compound 10 µM
[31] = second compound 1 µM, first compound 0.0316 µM
[32] = second compound 1 µM, first compound 0.1 µM
[33] = second compound 1 µM, first compound 0.316 µM
[34] = second compound 1 µM, first compound 1 µM
[35] = second compound 1 µM, first compound 3.16 µM
[36] = second compound 1 µM, first compound 10 µM
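Note: spheroids exposed to agents for seven days before viability readout.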
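Throughout, for viability, T/C: 100% = DMSO vehicle control viability.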

CC(=O)OC12COC1CC(O)C1(C)C(=O)C(O)C3=C(C)C(OC(=O)C(O)C(NC(=O)OC(C)(C)C)c4ccccc4)CC(O)(C(OC(=O)c4ccccc4)C21)C3(C)C (stereo not given) + C=CC(=O)N1CCN(c2nc(OCC3CCCN3C)nc3c(F)c(-c4nc(N)cc(C)c4C(F)(F)F)c(Cl)cc23)C(C)C1
< 31.6 nM: IC50 (second compound 0.00316 µM) | IC50 (second compound 0.01 µM) | IC50 (second compound 0.0316 µM) | IC50 (second compound 0.1 µM) | IC50 (second compound 0.316 µM) | IC50 (second compound 1 µM)
inactive: viability, T/C [1] 28% | viability, T/C [2] 22.4% | viability, T/C [3] 18.4% | viability, T/C [4] 18.6% | viability, T/C [5] 18.3% | viability, T/C [6] 24.5% | viability, T/C [7] 25.3% | viability, T/C [8] 21.4% | viability, T/C [9] 17.5% | viability, T/C [10] 20.5% | viability, T/C [11] 18.7% | viability, T/C [12] 21.2% | viability, T/C [13] 21.3% | viability, T/C [14] 23.9% | viability, T/C [15] 16.5% | viability, T/C [16] 18.5% | viability, T/C [17] 20% | viability, T/C [18] 21.9% | viability, T/C [19] 24.3% | viability, T/C [20] 20.6% | viability, T/C [21] 20.6% | viability, T/C [22] 16.4% | viability, T/C [23] 21.1% | viability, T/C [24] 21% | viability, T/C [25] 22.3% | viability, T/C [26] 22.3% | viability, T/C [27] 17.2% | viability, T/C [28] 18.5% | viability, T/C [29] 20.8% | viability, T/C [30] 23.9% | viability, T/C [31] 22.4% | viability, T/C [32] 20.4% | viability, T/C [33] 18.7% | viability, T/C [34] 17.3% | viability, T/C [35] 23% | viability, T/C [36] 24.8%

CCC(CC)c1cc(NC2CCC(N)C2)n2nccc2n1 (stereo not given) + C=CC(=O)N1CCN(c2nc(OCC3CCCN3C)nc3c(F)c(-c4nc(N)cc(C)c4C(F)(F)F)c(Cl)cc23)C(C)C1
1790 nM: IC50 (second compound 0.0316 µM)
1860 nM: IC50 (second compound 1 µM)
active: viability, T/C [5] 0.65% | viability, T/C [6] 2.31% | viability, T/C [11] 0.87% | viability, T/C [12] 2.95% | viability, T/C [17] 0.34% | viability, T/C [18] 0.25% | viability, T/C [23] 0.59% | viability, T/C [24] 0.27% | viability, T/C [29] 1.41% | viability, T/C [30] 1.72% | viability, T/C [35] 2.76% | viability, T/C [36] 2.4%
1770 nM: IC50 (second compound 0.00316 µM)
1800 nM: IC50 (second compound 0.01 µM) | IC50 (second compound 0.316 µM)
1780 nM: IC50 (second compound 0.1 µM)
inactive: viability, T/C [1] 101% | viability, T/C [2] 97.5% | viability, T/C [3] 92.6% | viability, T/C [4] 97.8% | viability, T/C [7] 100% | viability, T/C [8] 102% | viability, T/C [9] 96.6% | viability, T/C [10] 102% | viability, T/C [13] 108% | viability, T/C [14] 100% | viability, T/C [15] 90.2% | viability, T/C [16] 105% | viability, T/C [19] 103% | viability, T/C [20] 95.2% | viability, T/C [21] 96.9% | viability, T/C [22] 104% | viability, T/C [25] 107% | viability, T/C [26] 90.1% | viability, T/C [27] 101% | viability, T/C [28] 105% | viability, T/C [31] 106% | viability, T/C [32] 106% | viability, T/C [33] 96.5% | viability, T/C [34] 114%

Cc1nc(N2CCC3(CC2)COC(C)C3N)c(CO)nc1Sc1ccnc(N)c1Cl (stereo not given) + C=CC(=O)N1CCN(c2nc(OCC3CCCN3C)nc3c(F)c(-c4nc(N)cc(C)c4C(F)(F)F)c(Cl)cc23)C(C)C1
> 10000 nM: IC50 (second compound 0.00316 µM) | IC50 (second compound 0.01 µM) | IC50 (second compound 0.0316 µM) | IC50 (second compound 0.1 µM) | IC50 (second compound 0.316 µM) | IC50 (second compound 1 µM)
inactive: viability, T/C [1] 93.3% | viability, T/C [2] 101% | viability, T/C [3] 125% | viability, T/C [4] 95.6% | viability, T/C [5] 98.1% | viability, T/C [6] 84.7% | viability, T/C [7] 114% | viability, T/C [8] 111% | viability, T/C [9] 110% | viability, T/C [10] 110% | viability, T/C [11] 90.2% | viability, T/C [12] 83.7% | viability, T/C [13] 107% | viability, T/C [14] 110% | viability, T/C [15] 114% | viability, T/C [16] 99.3% | viability, T/C [17] 109% | viability, T/C [18] 80.6% | viability, T/C [19] 98.7% | viability, T/C [20] 113% | viability, T/C [21] 115% | viability, T/C [22] 119% | viability, T/C [23] 97.3% | viability, T/C [24] 83.2% | viability, T/C [25] 105% | viability, T/C [26] 99% | viability, T/C [27] 129% | viability, T/C [28] 102% | viability, T/C [29] 106% | viability, T/C [30] 73% | viability, T/C [31] 97.7% | viability, T/C [32] 110% | viability, T/C [33] 99.7% | viability, T/C [34] 109% | viability, T/C [35] 89.4% | viability, T/C [36] 75.4%

NC1c2ccccc2OC12CCN(c1cnc3c(N4CCCc5ncccc54)n[nH]c3n1)CC2 (stereo not given) + C=CC(=O)N1CCN(c2nc(OCC3CCCN3C)nc3c(F)c(-c4nc(N)cc(C)c4C(F)(F)F)c(Cl)cc23)C(C)C1
> 10000 nM: IC50 (second compound 0.00316 µM) | IC50 (second compound 0.01 µM) | IC50 (second compound 0.0316 µM) | IC50 (second compound 0.1 µM) | IC50 (second compound 0.316 µM) | IC50 (second compound 1 µM)
inactive: viability, T/C [1] 119% | viability, T/C [2] 114% | viability, T/C [3] 81.2% | viability, T/C [4] 79.1% | viability, T/C [5] 58.7% | viability, T/C [6] 53.5% | viability, T/C [7] 134% | viability, T/C [8] 104% | viability, T/C [9] 95.4% | viability, T/C [10] 80.5% | viability, T/C [11] 83% | viability, T/C [12] 64.2% | viability, T/C [13] 121% | viability, T/C [14] 113% | viability, T/C [15] 95.7% | viability, T/C [16] 74.9% | viability, T/C [17] 77.4% | viability, T/C [18] 60.6% | viability, T/C [19] 112% | viability, T/C [20] 110% | viability, T/C [21] 81.3% | viability, T/C [22] 93.4% | viability, T/C [23] 64.7% | viability, T/C [24] 62.1% | viability, T/C [25] 120% | viability, T/C [26] 112% | viability, T/C [27] 91.4% | viability, T/C [28] 74.3% | viability, T/C [29] 70.9% | viability, T/C [30] 52.3% | viability, T/C [31] 116% | viability, T/C [32] 101% | viability, T/C [33] 91.8% | viability, T/C [34] 83.6% | viability, T/C [35] 73% | viability, T/C [36] 62.3%

Nc1ccn(C2OC(CO)C(O)C2(F)F)c(=O)n1 (stereo not given) + C=CC(=O)N1CCN(c2nc(OCC3CCCN3C)nc3c(F)c(-c4nc(N)cc(C)c4C(F)(F)F)c(Cl)cc23)C(C)C1
11.7 nM: IC50 (second compound 0.01 µM)
9.78 nM: IC50 (second compound 1 µM)
14.7 nM: IC50 (second compound 0.0316 µM)
11.8 nM: IC50 (second compound 0.00316 µM)
inactive: viability, T/C (second compound 0.00316 µM, first compound 0.00316 µM) 96.1% | viability, T/C (second compound 0.00316 µM, first compound 0.01 µM) 53.2% | viability, T/C [1] 29.3% | viability, T/C [2] 14.4% | viability, T/C [3] 14.2% | viability, T/C [4] 17.6% | viability, T/C (second compound 0.01 µM, first compound 0.00316 µM) 109% | viability, T/C (second compound 0.01 µM, first compound 0.01 µM) 54.9% | viability, T/C [7] 18.7% | viability, T/C [8] 15.8% | viability, T/C [9] 12.9% | viability, T/C [10] 16.3% | viability, T/C (second compound 0.0316 µM, first compound 0.00316 µM) 108% | viability, T/C (second compound 0.0316 µM, first compound 0.01 µM) 65.1% | viability, T/C [13] 20.1% | viability, T/C [14] 13% | viability, T/C [15] 9.07% | viability, T/C [16] 16.4% | viability, T/C (second compound 0.1 µM, first compound 0.00316 µM) 88.9% | viability, T/C (second compound 0.1 µM, first compound 0.01 µM) 64% | viability, T/C [19] 27% | viability, T/C [20] 14% | viability, T/C [21] 13.4% | viability, T/C [22] 14.6% | viability, T/C (second compound 0.316 µM, first compound 0.00316 µM) 111% | viability, T/C (second compound 0.316 µM, first compound 0.01 µM) 39.9% | viability, T/C [25] 21% | viability, T/C [26] 11.6% | viability, T/C [27] 14.9% | viability, T/C [28] 20.7% | viability, T/C (second compound 1 µM, first compound 0.00316 µM) 90.7% | viability, T/C (second compound 1 µM, first compound 0.01 µM) 49% | viability, T/C [31] 25.6% | viability, T/C [32] 16.8% | viability, T/C [33] 12.6% | viability, T/C [34] 17.6%
8.51 nM: IC50 (second compound 0.316 µM)
15.4 nM: IC50 (second compound 0.1 µM)
